Article PMC3551932, “STK295900, a Dual Inhibitor of Topoisomerase 1 and 2, Induces G2 Arrest in the Absence of DNA Damage” (PLoS ONE, 2013)

Experiments:
[1] = target: human topoisomerase 2α (Homo sapiens, UniProt P11388); assay: Supercoiled DNA relaxation assay for topoisomerase 2α; assay type: biochemical; conditions: pBR322, 37°C, 30 min
Procedure: After incubation, the reaction was terminated by addition of 2 µl of 10% SDS. The reaction mixtures were treated with 50 µg/ml proteinase K for 30 min at 37°C and then DNA was extracted with CIA (chloroform:isoamyl alcohol, 24∶1). Samples were resolved by electrophoresis on a 1% agarose gel. After staining the electrophoresed gel with ethidium bromide, DNA bands were visualized by UV light and photographed on Gel Doc XR.
(§1) Supercoiled DNA relaxation assay for (A) topoisomerase 1 (Top 1) and (B) topoisomerase 2 (Top 2). Supercoiled pBR322 plasmid DNA was incubated at 37°C for 30 min with Top 1 enzyme (A) or Top 2α (B) in the presence of various concentrations of indicated compounds. DNA samples were separated by electrophoresis on a 1% agarose gel, stained with ethidium bromide, and visualized by UV light. (−), supercoiled DNA alone; oc, open circular; sc, supercoiled. […] HeLa cells were pretreated with 10 µM of STK295900 for 30 min and then incubated with the indicated concentrations of camptothecin for 1 h. Treated cells were lysed and subjected to immunoblot analyses with antibody against γ-H2A.X. β-actin was used as a loading control. […] HeLa cells were pretreated with STK295900 at 10, 20, 30, or 50 µM or ICRF-193 at 10 µM for 30 min. […] Treated cells were then lysed and subjected to immunoblot analyses with antibody against γ-H2A.X. β-actin was used as a loading control.

[2] = system: hTERT RPE-1 cells; assay: Cell growth inhibition assay, hTERT RPE-1; assay type: cell-based, human; conditions: Table 2 comparison, hTERT RPE-1, non-cancer, growth up to 4 days
Description: (§2) Human epitheloid cervical carcinoma HeLa cells, human breast adenocarcinoma MCF7 and MDA-MB-231cells, human hepatocellular carcinoma HepG2 cells, human colon adenocarcinoma HT-29 cells, and human colorectal carcinoma HCT-116 cells were purchased from ATCC® and maintained in DMEM medium. Human prostate carcinoma PC-3 cells (purchased from ATCC®), human gastric carcinoma SNU-484 and SNU-601(obtained from Korean Cell Line Bank (KCLB)), human leukemia K-562 and HL-60 cells (purchased from ATCC®), immortalized human prostate epithelial 267B1cells, and immortalized human embryonic lung fibroblast MRC5CV1 cells were maintained in RPMI 1640 medium whereas immortalized retinal pigment epithelial hTERT RPE-1 cells (purchased from ATCC®) were maintained in DMEM/F12 medium. All cell lines were cultured in media supplemented with 10% fetal bovine serum, 100 U/ml penicillin, and […] streptomycin at 37°C in a 5% CO2 incubator.
(§3) Cells were seeded at the appropriate amount (1–2×10^3 cells) in triplicate in 96-well plates for 24 h and then treated with various concentrations of STK295900. Cell growth was determined by using EZ-CyTox cell viability assay kit (Daeil Lab. Service, Seoul, Korea). Ten microliters of WST solution were added to the treated cells at 24, 48, 72, and 96 h. Cells were further incubated at 37°C for 2 h and the absorbance was measured at 450 nm.

[3] = system: HT-29 cells; assay: Cell growth inhibition assay, HT-29; assay type: cell-based, human; conditions: Table 2 comparison, HT-29, growth up to 4 days
Description: as §2, §3

[4] = system: 267B1 cells; assay: Cell growth inhibition assay, 267B1; assay type: cell-based, human; conditions: Table 2 comparison, 267B1, non-cancer, growth up to 4 days
Description: as §2, §3

[5] = system: MRC5CV1 cells; assay: Cell growth inhibition assay, MRC5CV1; assay type: cell-based, human; conditions: Table 2 comparison, MRC5CV1, non-cancer, growth up to 4 days
Description: as §2, §3

[6] = target: T1, calf thymus topoisomerase 1 (Bos taurus, UniProt F1MN93); assay: Supercoiled DNA relaxation assay for topoisomerase 1; assay type: biochemical
T1 construct: purified calf thymus topoisomerase 1; purchased Takara Bio, Shiga, Japan; host or cells: calf thymus (tissue-purified)
T1 sequence (F1MN93 1-767): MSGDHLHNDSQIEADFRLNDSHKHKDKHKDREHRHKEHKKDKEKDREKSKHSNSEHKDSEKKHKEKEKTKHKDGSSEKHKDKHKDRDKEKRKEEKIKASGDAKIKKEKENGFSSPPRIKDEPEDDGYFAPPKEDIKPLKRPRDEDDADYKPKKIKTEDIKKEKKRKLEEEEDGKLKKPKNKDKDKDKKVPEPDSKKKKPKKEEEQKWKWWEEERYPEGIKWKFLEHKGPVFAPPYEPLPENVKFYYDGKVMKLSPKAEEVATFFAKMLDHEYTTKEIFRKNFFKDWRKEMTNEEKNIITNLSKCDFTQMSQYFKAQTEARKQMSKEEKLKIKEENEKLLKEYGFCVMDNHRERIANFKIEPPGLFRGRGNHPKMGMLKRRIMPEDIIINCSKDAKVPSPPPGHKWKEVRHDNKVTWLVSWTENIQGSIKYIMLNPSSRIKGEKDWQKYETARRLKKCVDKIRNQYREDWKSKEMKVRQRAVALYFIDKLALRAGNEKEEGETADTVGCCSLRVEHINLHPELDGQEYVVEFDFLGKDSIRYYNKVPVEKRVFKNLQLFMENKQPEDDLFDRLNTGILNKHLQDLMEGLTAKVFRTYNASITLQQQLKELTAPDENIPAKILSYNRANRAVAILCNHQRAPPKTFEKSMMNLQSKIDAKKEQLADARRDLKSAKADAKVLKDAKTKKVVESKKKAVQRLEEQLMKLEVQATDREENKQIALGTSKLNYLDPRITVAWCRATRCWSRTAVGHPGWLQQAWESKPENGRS

[7] = system: cancer (HeLa, MCF7, HepG2, and HT-29) and non-cancerous cell lines (hTERT RPE-1, 267B1, and MRC5CV1); assay: Cell growth inhibition assay, cancer and non-cancerous cell lines compared; assay type: cell-based, human
Description: as §2, §3

[8] = system: HeLa cells; assay: Cell growth inhibition assay, HeLa; assay type: cell-based, human; conditions: Table 2 comparison, growth up to 4 days
Description: as §2, §3

[9] = system: HepG2 cells; assay: Cell growth inhibition assay, HepG2; assay type: cell-based, human; conditions: Table 2 comparison, HepG2, growth up to 4 days
Description: as §2, §3

[10] = system: HeLa cells; assay: Immunoblot of cell cycle and DNA damage checkpoint proteins; assay type: cell-based, human; conditions: 24 h, STK295900 1 or 5 µM, camptothecin 10 µM, etoposide 10 µM
Procedure: (§4) Cells were lysed with cold RIPA buffer (50 mM Tris-HCl pH 8.0, 150 mM NaCl, 1% NP-40, 0.5% sodium deoxycholate, 0.1% SDS) containing freshly added protease inhibitor, phosphatase inhibitor (SIGMA), 1 mM DTT, and 1 mM Na3VO4 on ice for 1 h. Whole cell lysates were centrifuged at 15,000 rpm for 20 min and then the supernatant was transferred into a new tube. An appropriate amount of cell lysate was subjected to SDS-PAGE. Then the resolved proteins were transferred onto a PVDF membrane (Bio-Rad) for immunoblot analyses with specific antibodies. The proteins were detected using chemiluminescence solution (Thermo Scientific, Rockford, IL).
(A) Flow cytometric analysis for cell cycle distribution. HeLa cells were treated with the indicated concentrations of STK295900 for 24 h. Treated cells were then stained with propidium iodide (PI) and processed for cell cycle analysis. The bar graph represents the mean percentage of each cell cycle phase ± SD from three independent experiments. * = p<0.05 versus the respective G1, S, or G2/M phase of DMSO-treated cells. (B) Mitotic index of STK295900. HeLa cells were treated with the indicated concentrations of STK295900 for 24 h. Cells were then stained with Hoechst 33342 and mitotic cells were counted. […] (C) Cell cycle related proteins expression. […] Treated cells were lysed and subjected to immunoblot analyses with antibodies against cyclin A, cyclin B1, phospho-Histone H3 (S10), and Histone H3. β-actin was used as a loading control.
(A) G2/M transition regulated proteins expression. […] GAPDH was used as a loading control. (B) DNA damage-checkpoint related proteins. […] Images were analyzed on a fluorescence microscope.

[11] = system: HeLa cells; assay: Antagonistic effect on Top poison-induced DNA damage (γ-H2A.X immunoblot); assay type: cell-based, human; conditions: DMSO pretreated, 10 µM or 30 µM, 1 h
Procedure: as §4, §1
The lysates were subjected to immunoblot analyses with γ-H2A.X antibody.

[12] = system: MCF7 cells; assay: Cell growth inhibition assay, MCF7; assay type: cell-based, human; conditions: Table 2 comparison, MCF7, growth up to 4 days
Description: as §2, §3

Sequence of human topoisomerase 2α (P11388 whole entry): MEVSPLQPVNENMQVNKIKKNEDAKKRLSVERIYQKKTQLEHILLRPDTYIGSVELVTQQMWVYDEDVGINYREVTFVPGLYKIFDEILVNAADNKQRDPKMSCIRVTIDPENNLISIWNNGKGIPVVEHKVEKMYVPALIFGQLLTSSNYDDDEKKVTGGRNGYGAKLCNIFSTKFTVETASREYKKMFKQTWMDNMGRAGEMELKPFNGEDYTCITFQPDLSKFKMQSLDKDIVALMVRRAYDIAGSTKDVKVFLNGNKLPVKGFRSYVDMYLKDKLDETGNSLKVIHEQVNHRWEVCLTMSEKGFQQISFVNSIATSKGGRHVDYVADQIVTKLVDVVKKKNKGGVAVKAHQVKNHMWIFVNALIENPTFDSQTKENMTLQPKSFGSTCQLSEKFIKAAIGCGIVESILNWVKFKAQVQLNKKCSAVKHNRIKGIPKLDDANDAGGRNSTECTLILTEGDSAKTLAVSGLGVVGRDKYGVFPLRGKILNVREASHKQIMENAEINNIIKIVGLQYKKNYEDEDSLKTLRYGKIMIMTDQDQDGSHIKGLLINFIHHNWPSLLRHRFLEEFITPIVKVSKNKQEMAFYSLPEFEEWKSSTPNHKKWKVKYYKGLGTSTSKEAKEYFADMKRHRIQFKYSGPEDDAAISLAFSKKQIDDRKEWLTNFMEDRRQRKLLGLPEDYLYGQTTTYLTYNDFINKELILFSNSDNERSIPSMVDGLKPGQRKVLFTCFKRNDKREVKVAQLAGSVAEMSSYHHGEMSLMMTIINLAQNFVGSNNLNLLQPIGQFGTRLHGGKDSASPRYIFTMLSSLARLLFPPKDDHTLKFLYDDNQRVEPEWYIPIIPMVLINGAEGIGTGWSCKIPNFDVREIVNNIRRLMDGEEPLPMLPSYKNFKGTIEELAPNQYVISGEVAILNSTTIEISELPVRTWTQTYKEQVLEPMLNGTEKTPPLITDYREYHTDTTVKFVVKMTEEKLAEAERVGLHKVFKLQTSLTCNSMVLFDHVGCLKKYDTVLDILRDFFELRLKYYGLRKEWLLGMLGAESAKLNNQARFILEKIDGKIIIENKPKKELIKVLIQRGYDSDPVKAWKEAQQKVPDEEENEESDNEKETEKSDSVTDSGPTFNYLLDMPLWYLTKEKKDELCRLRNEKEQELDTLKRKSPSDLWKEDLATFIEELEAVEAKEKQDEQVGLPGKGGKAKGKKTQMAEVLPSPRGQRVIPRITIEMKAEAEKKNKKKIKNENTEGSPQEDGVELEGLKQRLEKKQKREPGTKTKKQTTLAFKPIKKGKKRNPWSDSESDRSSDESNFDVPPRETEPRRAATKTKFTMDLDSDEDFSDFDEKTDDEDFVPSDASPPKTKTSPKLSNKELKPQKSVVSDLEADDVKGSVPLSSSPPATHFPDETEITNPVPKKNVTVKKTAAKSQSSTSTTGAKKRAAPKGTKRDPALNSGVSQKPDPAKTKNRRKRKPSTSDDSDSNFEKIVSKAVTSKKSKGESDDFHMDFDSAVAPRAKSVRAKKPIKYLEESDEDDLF

Row | Compound | Top 2α-mediated DNA relaxation [1] | IC50 ([2]; Homo sapiens, hTERT-RPE1, 96 h) [µM] | IC50 ([3]; Homo sapiens, HT-29, 96 h) [µM] | IC50 ([4]; Homo sapiens, 96 h) [µM] | IC50 ([5]; Homo sapiens, 96 h) [µM] | IC50 ([8]; Homo sapiens, 96 h) [µM] | IC50 ([9]; Homo sapiens, HepG2, 96 h) [µM] | Phosphorylation of Cdk1 at T161 ([10]; nocodazole 200 ng/ml) | Wee1 and Cdc25C levels ([10]; nocodazole 200 ng/ml) | cyclin A and cyclin B1 levels ([10]; nocodazole 200 ng/ml) | inhibitory phosphorylation of Cdk1 (T14 and Y15) ([10]; nocodazole 200 ng/ml) | IC50 ([12]; Homo sapiens, MCF7, 96 h) [µM] | also measured
1 | ICRF-193 | accumulation of supercoiled DNA | – | – | – | – | – | – | – | – | – | – | – | –
2 | CC[C@@]1(O)C(=O)OCc2c1cc1n(c2=O)Cc2cc3ccccc3nc2-1 [Camptothecin] | – | < 0.01 | 0.03 | < 0.01 | 0.02 | 0.02 | 0.02 | strongly enhanced | reduction of Cdc25C | accumulations of cyclin A and cyclin B1 | abundance | 0.03 | Top 1-mediated DNA relaxation [6]: inhibited DNA relaxation activity of Top 1 in a dose-dependent manner; IC50 ([7]; Homo sapiens, all cell lines tested (HeLa, MCF7, HepG2, HT-29, hTERT RPE-1, 267B1, MRC5CV1)): < 0.03 µM; p53 and p21 levels [10]: significantly increased; phosphorylation-dependent activation of ATM (S1981), ATR (S428), Chk1 (S345), and Chk2 (T68) [10]: activation of ATM, Chk1, and Chk2; γ-H2A.X induction in control cells (immunoblot) [11]: strongly induced γ-H2A.X
3 | CCOc1ccc(-c2nc3ccc(-c4nc5ccc(N6CCN(C)CC6)cc5[nH]4)cc3[nH]2)cc1 [Hoechst 33342] | – | – | – | – | – | – | – | – | – | – | – | – | IC50 [2]: 1.01 µM; IC50 [3]: 0.65 µM; IC50 [4]: 0.84 µM; IC50 [5]: 0.35 µM; selectivity of toxicity, cancer versus non-cancer cells ([7]; cancer (HeLa, MCF7, HepG2, HT-29) vs non-cancer (hTERT RPE-1, 267B1, MRC5CV1)): diverse and non-selective against cancer cells; IC50 [8]: 4.56 µM; IC50 [9]: 0.22 µM; IC50 [12]: 0.2 µM
4 | COC(=O)Nc1nc2ccc(C(=O)c3cccs3)cc2[nH]1 [nocodazole] | – | – | – | – | – | – | – | strongly enhanced | undetectable levels of Wee1 but activation of Cdc25C | high level of cyclin B1 and undetectable level of cyclin A | could not be detected | – | Histone H3 phosphorylation at S10 ([10]; nocodazole 200 ng/ml): detected only in cells treated with nocodazole
5 | COc1cc([C@@H]2c3cc4c(cc3[C@@H](O[C@@H]3O[C@@H]5CO[C@@H](C)O[C@H]5[C@H](O)[C@H]3O)[C@H]3COC(=O)[C@H]23)OCO4)cc(OC)c1O [Etoposide] | inhibited Top 2α activity by reducing the relaxed DNA and increasing nicked-open-circular DNA | 0.45 | 10.3 | 0.39 | 1.29 | 0.3 | 0.84 | – | – | – | – | 13.2 | –
